Measurements reported in US6573289B1, “Naphthalene derivatives, their production and use” (Takeda Chemical Industries, Ltd., priority 1998, dated 2003).
Counter-ions that a name gives are not always drawn.

Experiments:
[1] = target: T1, Rat Steroid C17-20-Lyase (Rattus norvegicus, UniProt P11715); test: Assay of inhibitory activity on rat steroid C17-20-lyase in vitro; format: biochemical; conditions: rat testicular microsomes, 10 nM [1,2-3H]-17-α-hydroxyprogesterone, NADPH, 7 min at 37° C.; products testosterone and androstenedione reduced by 50%
T1 construct: testicular microsomes were prepared by a series of centrifugation; from tissue; host or cells: testicular microsomes of 13-week old male SD rats
T1 sequence (P11715 1-507): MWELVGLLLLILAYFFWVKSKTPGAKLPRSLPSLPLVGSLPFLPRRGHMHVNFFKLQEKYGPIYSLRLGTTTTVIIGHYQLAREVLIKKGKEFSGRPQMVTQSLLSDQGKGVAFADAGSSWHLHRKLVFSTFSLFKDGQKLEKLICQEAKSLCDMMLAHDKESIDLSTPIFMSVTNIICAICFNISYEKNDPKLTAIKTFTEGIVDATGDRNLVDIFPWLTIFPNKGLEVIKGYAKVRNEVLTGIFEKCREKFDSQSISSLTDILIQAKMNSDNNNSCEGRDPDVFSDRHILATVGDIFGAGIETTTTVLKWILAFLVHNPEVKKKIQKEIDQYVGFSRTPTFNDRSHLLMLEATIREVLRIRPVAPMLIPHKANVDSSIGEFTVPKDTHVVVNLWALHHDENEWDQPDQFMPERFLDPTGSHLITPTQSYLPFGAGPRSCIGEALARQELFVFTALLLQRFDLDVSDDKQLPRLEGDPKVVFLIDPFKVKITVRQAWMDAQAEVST
Protocol: Assay of Inhibitory Activity on Rat Steroid C17-20-Lyase In Vitro
Inhibitory activity was determined according to the method described in The Prostate, vol.26, 140-150(1995) with some modifications.
Testes excised from 13-week old, male SD rats were homogenized, and testicular microsomes were prepared by a series of centrifugation. The microsome protein (7 μg/10 μl) was added to 10 μl of 100 mM phosphate buffer (pH 7.4) in which 10 nM (final concentration) [1,2-3H]-17-α-hydroxyprogesterone, NADPH, and test compounds were dissolved. The reaction mixture was incubated for 7 min at 37° C., terminated by addition of 40 μl of Ethyl acetate, and briefly centrifuged. The substrate and the products (testosterone and androstenedione) in the upper phase were separated by silica gel thin layer chromatography. Detection of the spots and measurement of the radioactivity were performed by a BAS 2000 Bioimage analyzer. The concentration of the test compounds necessary to reduce the concentration of the products by 50% (The concentration in the control group in which no test compound was added was taken as 100%) was calculated, and shown in Table 1.

[2] = test system: testosterone biosynthesis; test: Assay of inhibitory activity on testosterone biosynthesis in rat; format: in vivo; conditions: male SD rats, oral, 50 mg/kg, serum testosterone 2 h later, percentage of control group
Protocol: Assay of Inhibitory Activity on Testosterone Biosynthesis in Rat
Test compounds were orally administered to 9-week old, male SD (Spague-Dawley) rats at a dose of 50 mg/kg. Two-h later blood was taken and testosterone concentration in serum was measured by radioimmunoassay. The percentage of the testosterone concentration of the groups of rats, which received test compounds, to that of the control group was calculated, and regarded as the inhibitory activity.

Row | SMILES | IC50 [1] [nM] | Inhibitory activity on testosterone biosynthesis (T/C, %) [2] [%]
1 | COc1ccc2cc(C(O)(c3c[nH]cn3)C3CC3)ccc2c1 (stereo not drawn) [Example 4, Cyclopropyl-(6-methoxynaphthalen-2-yl)-(1H-imidazol-4-yl)methanol Fumarate] | 64 | 
2 | COc1ccc2cc(C(C)(OC)c3c[nH]cn3)ccc2c1 (stereo not drawn) [Example 19, 4-[1-Methoxy-1-(6-methoxynaphthalen-2-yl)ethyl]-1H-imidazole] | 35 | 
3 | COc1ccc2cc(C(O)(c3c[nH]cn3)C(C)C)ccc2c1 (stereo not drawn) [Example 1, 1-(1H-Imidazol-4-yl)-1-(6-methoxynaphthalen-2-yl)-2-methyl-1-propanol] | 33 | 2.0
4 | CCC(O)(c1ccc2cc(OC)ccc2c1)c1c[nH]cn1 (stereo not drawn) [Example 12, 1-(1H-Imidazol-4-yl)-1-(6-methoxynaphthalen-2-yl)-1-propanol] | 41 | 10

The next lines start with results.

Row | IC50 [1] [nM] | SMILES | Inhibitory activity on testosterone biosynthesis (T/C, %) [2] [%]
5 | 32 | COc1ccc2cc(C(O)(c3c[nH]cn3)C(C)C)ccc2c1F (stereo not drawn) [Example 11, 1-(5-Fluoro-6-methoxynaphthalen-2-yl)-1-(1H-imidazol-4-yl)-2-methyl-1-propanol] | 9.0
6 | 32 | COc1ccc2cc(C(O)(c3ccncc3)C(C)C)ccc2c1 (stereo not drawn) [Example 9, 1-(6-Methoxynaphthalen-2-yl)-2-methyl-1-(pyridin-4-yl)-1-propanol] | 
